The text below walks through data of US12310975B2, “Modulators of BCL6 proteolysis and associated methods of use” (Arvinas Operations, Inc., priority 2019, dated 2025).

Assay [1] concerns the target T1, BCL6 (Homo sapiens (Human), UniProt P41182). Kind of assay: BCL6 TR-FRET assay (BCL6-Avitag-Biotin / BCoR-Cy5 peptide). The class given is binding. As to the method: Protein Synthesis. BCL6 protein was expressed by transforming Invitrogen One Shot cells with GS63525 pET24a-His-SUMO-TEV-BCLm-Avitag plasmid following manufacturer's instructions. In addition, biotin at a final concentration of 50 μM, and IPTG at a final concentration of 1 mM was added to the culture and incubated at room temperature shaking overnight.
Assay buffer A: 50 mM HEPES pH 7.5, 125 mM NaCl, 0.01% TritonX.
Assay buffer B (made fresh): buffer A+1 mM Glutathione (or 0.5 mM DTT).
Assay buffer C (made fresh): buffer B+0.03% BSA.
Black Proxy plates, 96 well.
15 μl final reaction volumes (BCoR-Cy5 100 nM, SA-Eu 2 nM, BCL6-avitag 2 nM).
[…] BCL6-Avitag-Biotin stock: made fresh by adding 2 μl of BCL6-Avitag-Biotin to 31.5 ml Buffer C.
1 mM BCoR-Cy5 peptide (LifeTein) stock in Dimethylformamide (DMF).
300 nM BCoR-Cy5 working stock: made fresh by adding 4.5 μl of the 1 mM BCoR-Cy5 peptide stock to 15 ml Buffer B.
10 μM Eu-Streptavidin (Lance Eu-W1024 Streptavidin, PerkinElmer) stock solution.
6 nM Eu-Streptavidin working stock: made fresh by adding 9 μl Eu-Streptavidin stock solution to 15 ml Buffer A.
Compounds were diluted to 10 mM. Twenty microliters of DMSO was aliquoted to each well of the microtiter plates. From the 10 mM compound stock, 8.7 ul was aliquoted to the 20 ul DMSO and 3-fold serial dilutions (12 pt 3-0.01 uM tritration plate, 96 well, 100% DMSO) performed. Five ul from the titration plate wells was aliquoted to 45 ul Buff C (Intermediate dilution plates, 10% DMSO).
Spot 1.5 μl compound titrations to 384-well plates in duplicate, and spot 3.5 μl [8.5 nM] BCL6-bio protein to each well. The plate was mix briefly, centrifuged, and incubated for 30 minutes at room temperature.
Mix 14 mls of BCoR-Cy5 [300 nM] and 14 mls [6 nM] Eu-Streptavidin. Spot 10 μl BCoR-Cy5/SA-Eu (1:1) mix to each well. The plates were incubated for 2 hours and then read on an Envision plate reader.

For assay [2], the target named is T1, BCL6. Kind of assay: Immunofluorescence high content imaging of BCL6 degradation in T47D cells. Conditions: for Dmax: T47D. The class given is cell-based. In outline: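 Read-out is BCL6 immunofluorescence quantified by high-content imaging (10×, 4 fields per well) of T47D breast cancer cells. Cells were exposed for 3 days to degrader in an 11-point, 3-fold serial dilution reaching a final top concentration of 0.1 or 1 μM.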

Regarding `CNC(=O)COc1cc2cc(Nc3nc(N4CCO[C@@H](COc5ccc6c(c5)C(=O)N(C5CCC(=O)NC5=O)C6=O)C4)ncc3Cl)ccc2n(C)c1=O` (stereo partly drawn) [compound 222, 2-((6-((5-chloro-2-((2R)-2-(((2-(2,6-dioxopiperidin-3-yl)-1,3-dioxoisoindolin-5-yl)oxy)methyl)morpholino)pyrimidin-4-yl)amino)-1-methyl-2-oxo-1,2-dihydroquinolin-3-yl)oxy)-N-methylacetamide], the EC50 at BCL6 [1] was more than 100 nM. Also, on BCL6 [2], the IC50 was in the range of 50 to 100 nM and the Dmax is less than 50%.

Turning to `CNC(=O)COc1cc2cc(Nc3nc(N4CCC(N5CCC6(CCN(c7ccc8c(c7)C(=O)N(C7CCC(=O)NC7=O)C8=O)CC6)C5)CC4)ncc3Cl)ccc2n(C(C)C)c1=O` (stereo not shown) [compound 521, 2-[(6-{[5-chloro-2-(4-{8-[2-(2,6-dioxopiperidin-3-yl)-1,3-dioxo-2,3-dihydro-1H-isoindol-5-yl]-2,8-diazaspiro[4.5]decan-2-yl}piperidin-1-yl)pyrimidin-4-yl]amino}-2-oxo-1-(propan-2-yl)-1,2-dihydroquinolin-3-yl)oxy]-N-methylacetamide], the IC50 on BCL6 [1] (read-out: IC50) was less than 10 nM. Besides, on BCL6 [2], the Dmax lay within 50 to 70%.

On BCL6 [1], `CC(=O)COc1cc2cc(Nc3nc(N4CCC(CN5CC(C6CN(c7ccc8c(c7)C(=O)N(C7CCC(=O)NC7=O)C8=O)C6)C5)CC4)ncc3Cl)ccc2n(C)c1=O` (stereo not shown) [compound 199, 5-(1′-((1-(5-chloro-4-((1-methyl-2-oxo-3-(2-oxopropoxy)-1,2-dihydroquinolin-6-yl)amino)pyrimidin-2-yl)piperidin-4-yl)methyl)-[3,3′-biazetidin]-1-yl)-2-(2,6-dioxopiperidin-3-yl)isoindoline-1,3-dione] showed an EC50 of less than 10 nM. At BCL6 [2], this compound had a half-maximal inhibitory concentration (IC50) of 10 to 50 nM and a Dmax of 50 to 70%.

On to `CNC(=O)COc1cc2cc(Nc3nc(N4CCC5(CCN(CC6CCN(c7cccc8c7C(=O)N(C7CCC(=O)NC7=O)C8=O)CC6)C5)CC4)ncc3Cl)ccc2n(C(C)C)c1=O` (stereo not shown) [compound 508, 2-{[6-({5-chloro-2-[2-({1-[2-(2,6-dioxopiperidin-3-yl)-1,3-dioxo-2,3-dihydro-1H-isoindol-4-yl]piperidin-4-yl}methyl)-2,8-diazaspiro[4.5]decan-8-yl]pyrimidin-4-yl}amino)-2-oxo-1-(propan-2-yl)-1,2-dihydroquinolin-3-yl]oxy}-N-methylacetamide], for which the IC50 at BCL6 [1] (read-out: IC50) was less than 10 nM. At BCL6 [2], the Dmax was not below 70%.

As for `CNC(=O)COc1cc2cc(Nc3nc(N4CCC[C@H](COc5cccc6c5C(=O)N(C5CCC(=O)NC5=O)C6=O)C4)ncc3Cl)ccc2n(CCOC)c1=O` (stereo partly drawn) [compound 455, 2-{[6-({5-chloro-2-[(3S)-3-({[2-(2,6-dioxopiperidin-3-yl)-1,3-dioxo-2,3-dihydro-1H-isoindol-4-yl]oxy}methyl)piperidin-1-yl]pyrimidin-4-yl}amino)-1-(2-methoxyethyl)-2-oxo-1,2-dihydroquinolin-3-yl]oxy}-N-methylacetamide], the IC50 at BCL6 [1] (read-out: IC50) fell in the range of 50 to 100 nM. Further, the Dmax at BCL6 [2] was not below 70%.

For `CNC(=O)COc1cc2cc(Nc3nc(N4CCC5(CCN(CC6CCN(c7ccc8c(c7)C(=O)N(C7CCC(=O)NC7=O)C8=O)CC6)C5)CC4)ncc3Cl)ccc2n(C(C)C)c1=O` (stereo not shown) [compound 507, 2-{[6-({5-chloro-2-[2-({1-[2-(2,6-dioxopiperidin-3-yl)-1,3-dioxo-2,3-dihydro-1H-isoindol-5-yl]piperidin-4-yl}methyl)-2,8-diazaspiro[4.5]decan-8-yl]pyrimidin-4-yl}amino)-2-oxo-1-(propan-2-yl)-1,2-dihydroquinolin-3-yl]oxy}-N-methylacetamide], the IC50 on BCL6 [1] (read-out: IC50) was less than 10 nM. The Dmax at BCL6 [2] is not below 70%.

In the case of `CNC(=O)COc1cc2cc(Nc3nc(N4CCC(CN5CCC6(CC5)CCN(c5ccc(N7CCC(=O)NC7=O)cc5)C6)CC4)ncc3Cl)ccc2n(C(C)C)c1=O` [compound 497, 2-{[6-({5-chloro-2-[4-({2-[4-(2,4-dioxo-1,3-diazinan-1-yl)phenyl]-2,8-diazaspiro[4.5]decan-8-yl}methyl)piperidin-1-yl]pyrimidin-4-yl}amino)-2-oxo-1-(propan-2-yl)-1,2-dihydroquinolin-3-yl]oxy}-N-methylacetamide], the IC50 at BCL6 [1] (read-out: IC50) was less than 10 nM. This compound showed a Dmax at BCL6 [2] of less than 50%.

`Cn1c(=O)cc(NC(C)(C)c2ncccn2)c2cc(Nc3nc(N4CCC(CN5CCN(c6ccc7c(c6)C(=O)N(C6CCC(=O)NC6=O)C7=O)CC5)CC4)ncc3Cl)ccc21` (stereo not shown) [compound 156, 5-(4-((1-(5-chloro-4-((1-methyl-2-oxo-4-((2-(pyrimidin-2-yl)propan-2-yl)amino)-1,2-dihydroquinolin-6-yl)amino)pyrimidin-2-yl)piperidin-4-yl)methyl)piperazin-1-yl)-2-(2,6-dioxopiperidin-3-yl)isoindoline-1,3-dione]: at BCL6 [1] (class symbols A-D, read-out: IC50 (nM)***), the IC50 was not below 100 nM. At BCL6 [2] (maximum, class symbols A-C), this compound registered a Dmax of less than 50%. Also, the DC50 on BCL6 [2] (class symbols A-D, read-out: EC50 (nM)*) is more than 100 nM.

Consider `CNC(=O)COc1cc2cc(Nc3nc(N4CCC(CN5CCC6(CCN(c7cccc8c7C(=O)N(C7CCC(=O)NC7=O)C8=O)CC6)C5)CC4)ncc3Cl)ccc2n(C(C)C)c1=O` (stereo not shown) [compound 506, 2-{[6-({5-chloro-2-[4-({8-[2-(2,6-dioxopiperidin-3-yl)-1,3-dioxo-2,3-dihydro-1H-isoindol-4-yl]-2,8-diazaspiro[4.5]decan-2-yl}methyl)piperidin-1-yl]pyrimidin-4-yl}amino)-2-oxo-1-(propan-2-yl)-1,2-dihydroquinolin-3-yl]oxy}-N-methylacetamide], for which the IC50 at BCL6 [1] (read-out: IC50) is less than 10 nM. The same compound returned a Dmax on BCL6 [2] of 50 to 70%.

With `CNC(=O)COc1cc2cc(Nc3nc(N4CCC[C@H](COc5ccc6c(c5)C(=O)N(C5CCC(=O)NC5=O)C6=O)C4)ncc3Cl)ccc2n(C)c1=O` (stereo partly drawn) [compound 237, 2-((6-((5-chloro-2-((3S)-3-(((2-(2,6-dioxopiperidin-3-yl)-1,3-dioxoisoindolin-5-yl)oxy)methyl)piperidin-1-yl)pyrimidin-4-yl)amino)-1-methyl-2-oxo-1,2-dihydroquinolin-3-yl)oxy)-N-methylacetamide], the EC50 on BCL6 [1] lay in the range of 10 to 50 nM. Moreover, at BCL6 [2], the IC50 is 10 to 50 nM and the Dmax is less than 50%.

Regarding `CNC(=O)COc1cc2cc(Nc3nc(N4CCN(CC5CCC6(CC5)CN(c5cccc7c5C(=O)N(C5CCC(=O)NC5=O)C7=O)C6)CC4)ncc3Cl)ccc2n(C(C)C)c1=O` (stereo not shown) [compound 452, 2-{[6-({5-chloro-2-[4-({2-[2-(2,6-dioxopiperidin-3-yl)-1,3-dioxo-2,3-dihydro-1H-isoindol-4-yl]-2-azaspiro[3.5]nonan-7-yl}methyl)piperazin-1-yl]pyrimidin-4-yl}amino)-2-oxo-1-(propan-2-yl)-1,2-dihydroquinolin-3-yl]oxy}-N-methylacetamide], on BCL6 [1] (read-out: IC50), the IC50 is less than 10 nM. For the same compound, at BCL6 [2], the Dmax was not below 70%.

On to `CNC(=O)C1Oc2cc(Nc3nc(N4CCN(C(C)(C)C5CCN(c6ccc7c(c6)C(=O)N(C6CCC(=O)NC6=O)C7=O)CC5)CC4)ncc3Cl)ccc2N(C)C1=O` (stereo not shown) [compound 274, 7-({5-chloro-2-[4-(2-{1-[2-(2,6-dioxopiperidin-3-yl)-1,3-dioxo-2,3-dihydro-1H-isoindol-5-yl]piperidin-4-yl}propan-2-yl)piperazin-1-yl]pyrimidin-4-yl}amino)-N,4-dimethyl-3-oxo-3,4-dihydro-2H-1,4-benzoxazine-2-carboxamide], for which the EC50 at BCL6 [1] is more than 100 nM. This compound yielded an IC50 against BCL6 [2] not below 100 nM.
